This is an account of results in BindingDB's records for doi:10.1016/s0960-894x(99)00097-9 (University of Minnesota, 1999).

This assay addresses Lactoylglutathione lyase (Saccharomyces cerevisiae). Kind of assay: Ability to inhibit yeast glyoxalase I enzyme in 0.05 M phosphate buffer, pH 6.6, 30 degree C.

For `NC(CNC(=O)NC(CSCc1ccc(Br)cc1)C(=O)NCC(=O)O)C(=O)O` (stereo unspecified) [2-Amino-3-{3-[2-(4-bromo-benzylsulfanyl)-1-(carboxymethyl-carbamoyl)-ethyl]-ureido}-propionic acid], affinity was put at a Ki of 15.5 µM.

The Ki is the dissociation constant of the complex between target and ligand, obtained from inhibition or displacement.
